# Patent publication US20070254894A1, “Novel small molecules with selective cytotoxicity against human microvascular endothelial cell proliferation” (priority 2006, published 2007)
# Read-outs that look alike come from different tables or passages of the source.
# Columns and labels:
# [1] = test system: HMVEC cells stimulated with VEGF 165; experiment: VEGF driven HMVEC proliferation screen; type: cell-based
# Description: (§1) HMVEC cells were plated on collagen-coated plates at 2500 cells/well for 24 hours. Various concentrations of test compounds were then added to duplicate plates. […] Anti-FGF antibody (final concentration of 5 μg/mL) was added to four control wells as a standard inhibitor. At the same time the compounds were added, a T-zero plate was generated (Alamar blue was added to a plate and read after three hours). The plates with the compounds were incubated for one hour at 37° C., 5% carbon dioxide. At this point, b-FGF was added (final concentration of 2.5 ng/mL). Tween-20 (10 μL) was added to four additional control wells to represent total death and the plates were returned to the carbon dioxide incubator for 6 days.
# The assay was run identically using VEGF in place of b-FGF. The final concentration of VEGF 165, in this mode, was 10 ng/mL. The control inhibitor was anti-VEGF antibody (final concentration of […]). All other conditions were the same.
# [2] = test system: HMVEC cells stimulated with b-FGF; experiment: b-FGF driven HMVEC proliferation screen; type: cell-based
# Description: as §1
# [3] = test system: Primary Human Dermal Fibroblasts; experiment: in vitro; settings: read-out: D. Fibroblast LC50; 6 days, Alamar blue
# Description: In parallel with the VEGF and FGF screens, a normal cell toxicity assay was run. Primary Human Dermal Fibroblasts (Clonetics) were plated at 5000 cells/well. After 24 hours various concentrations of test compounds, were added in duplicate plates and 10% Tween-20 was added to four control wells to represent total death. At the same time a T-zero plate was generated. The plates were returned to the carbon dioxide incubator and on day 6 Alamar blue was added and the plates read after 3 hours.
# Using a T-zero plate allows the observation of compounds that cause the cells to become static as well as inhibit growth.
# [4] = VEGF 165 10 ng/mL, 6 days, Alamar blue, read-out: VEGF LC50
# [5] = b-FGF 2.5 ng/mL, 6 days, Alamar blue, read-out: b-FGF LC50
# [6] = Homo sapiens, HMVEC, 144 h, VEGF 165 10 ng/mL, 6 days, Alamar blue, read-out: VEGF LC50
# [7] = Homo sapiens, HMVEC, 144 h, b-FGF 2.5 ng/mL, 6 days, Alamar blue, read-out: b-FGF LC50
Compound,CC50 [1],CC50 [2],CC50 [3],"CC50 [1, 4]","CC50 [2, 5]","CC50 [1, 6]","CC50 [2, 7]"
O=C(Nc1cccc2cccnc12)c1ccccn1 [Compound 1],65 nM,61 nM,,,,,
COc1cc(NC(=O)c2ccccn2)c2ncccc2c1 [Compound 2],38 nM,31 nM,3400 nM,,,,
COc1ccc(NC(=O)c2ccccn2)c2ncccc12 [Compound 3],,,> 10000 nM,120 nM,110 nM,,
O=C(Nc1cc(Cl)cc2cccnc12)c1ccccn1 [Compound 4],120 nM,110 nM,> 10000 nM,,,,
O=C(Nc1cc(C(F)(F)F)cc2cccnc12)c1ccccn1 [Compound 5],160 nM,120 nM,> 10000 nM,,,,
Cc1ccc2cccc(NC(=O)c3ccccn3)c2n1 [Compound 6],3900 nM,3200 nM,> 10000 nM,,,,
O=C(Nc1cccc2cc(Cl)cnc12)c1ccccn1 [Compound 7],310 nM,320 nM,> 10000 nM,,,,
CCOc1cc(NC(=O)c2ccccn2)c2ncccc2c1 [Compound 8],96 nM,81 nM,> 10000 nM,,,,
O=C(Nc1cc(-c2ccccc2)cc2cccnc12)c1ccccn1 [Compound 10],,,> 10000 nM,260 nM,380 nM,,
Cc1cc(NC(=O)c2ccccn2)c2ncccc2c1 [Compound 11],73 nM,68 nM,> 10000 nM,,,,
O=C(Nc1ccc(Oc2ccccc2)c2cccnc12)c1ccccn1 [Compound 12],,,> 10000 nM,1000 nM,1000 nM,,
O=C(Nc1cc(N2CCOCC2)cc2cccnc12)c1ccccn1 [Compound 13],25 nM,26 nM,> 10000 nM,,,,
Cc1ccc(NC(=O)c2ccccn2)c2ncccc12 [Compound 14],130 nM,170 nM,> 10000 nM,,,,
O=C(Nc1cc(Cl)c(Cl)c2cccnc12)c1ccccn1 [Compound 15],210 nM,220 nM,> 10000 nM,,,,
Cc1cc(NC(=O)c2ccccn2)c2ncccc2c1C [Compound 17],160 nM,130 nM,> 10000 nM,,,,
O=C(Nc1ccc(Cl)c2cccnc12)c1ccccn1 [Compound 18],170 nM,200 nM,> 10000 nM,,,,
CN1CCN(c2ccc(NC(=O)c3ccccn3)c3ncccc23)CC1 [Compound 19],,,> 10000 nM,28 nM,28 nM,,
O=C(Nc1cc(OCCN2CCOCC2)cc2cccnc12)c1ccccn1 [Compound 20],30 nM,31 nM,,,,,
CN(C)CCN(C)c1ccc(NC(=O)c2ccccn2)c2ncccc12 [Compound 21],,,> 10000 nM,3700 nM,2400 nM,,
CCCOc1cccnc1C(=O)Nc1cccc2cccnc12 [Compound 23],180 nM,210 nM,> 10000 nM,,,,

Compound,CC50 [1],CC50 [2],CC50 [3],"CC50 [1, 4]","CC50 [2, 5]","CC50 [1, 6]","CC50 [2, 7]"
Cc1cccnc1C(=O)Nc1cccc2cccnc12 [Compound 24],140 nM,150 nM,> 10000 nM,,,,
Cc1cccc(C(=O)Nc2cccc3cccnc23)n1 [Compound 25],2500 nM,2300 nM,> 10000 nM,,,,
O=C(Nc1cccc2cccnc12)c1cccc(Br)n1 [Compound 26],86 nM,120 nM,> 10000 nM,,,,
O=C(Nc1cccc2cccnc12)c1cc(-c2ccccc2)ccn1 [Compound 27],,,> 10000 nM,640 nM,950 nM,,
O=C(Nc1cccc2cccnc12)c1cc2ccccc2cn1 [Compound 28],480 nM,610 nM,> 10000 nM,,,,
COc1ccnc(C(=O)Nc2cccc3cccnc23)c1 [Compound 29],60 nM,69 nM,> 10000 nM,,,,
O=C(Nc1cccc2cccnc12)c1cc(N2CCOCC2)ccn1 [Compound 30],22 nM,26 nM,8000 nM,,,,
O=C(Nc1cccc2cccnc12)c1ccc(-c2ccccc2)cn1 [Compound 33],,,> 10000 nM,4700 nM,6100 nM,,
"CN1CCN(c2ccnc(C(=O)Nc3cccc4cccnc34)c2)CC1 [Compound 34, 4-(4-methylpiperazin-1-yl)pyridine-2-carboxylic acid quinolin-8-ylamide]",,,> 10000 nM,13 nM,18 nM,,
O=C(Nc1cccc2cccnc12)c1cc(NCCN2CCOCC2)ccn1 [Compound 35],120 nM,160 nM,> 10000 nM,,,,
O=C(Nc1cccc2cccnc12)c1cc(N2CCN(Cc3ccccc3)CC2)ccn1 [Compound 36],,,> 10000 nM,840 nM,900 nM,,
O=C(Nc1cccc2cccnc12)c1cc(N2CCC(O)CC2)ccn1 [Compound 37],290 nM,310 nM,> 10000 nM,,,,
CN1CCCN(c2ccnc(C(=O)Nc3cccc4cccnc34)c2)CC1 [Compound 38],26 nM,25 nM,> 10000 nM,,,,
O=C(Nc1cccc2cccnc12)c1cc(N2CCN(CCO)CC2)ccn1 [Compound 39],220 nM,650 nM,> 10000 nM,,,,
CCN(CCN(C)C)c1ccnc(C(=O)Nc2cccc3cccnc23)c1 [Compound 40],16 nM,21 nM,7600 nM,,,,
CCN1CCN(c2ccnc(C(=O)Nc3cccc4cccnc34)c2)CC1 [Compound 41],17 nM,18 nM,4200 nM,,,,
O=C(Nc1cccc2cccnc12)c1cc(N2CCC(N3CCCC3)CC2)ccn1 [Compound 42],,,3600 nM,42 nM,33 nM,,
O=C(Nc1cccc2cccnc12)c1cc(N2CCCCC2)ccn1 [Compound 43],,,> 10000 nM,400 nM,220 nM,,
O=C(Nc1cccc2cccnc12)c1cc(N2CCSCC2)ccn1 [Compound 44],,,> 10000 nM,180 nM,250 nM,,
O=C(Nc1cccc2cccnc12)c1cc(SCc2ccccc2)ccn1 [Compound 45],,,> 10000 nM,61 nM,190 nM,,

Compound,CC50 [1],CC50 [2],CC50 [3],"CC50 [1, 4]","CC50 [2, 5]","CC50 [1, 6]","CC50 [2, 7]"
O=C(Nc1cccc2cccnc12)c1ncccc1O [Compound 46],51 nM,66 nM,> 10000 nM,,,,
O=C(Nc1cccc2cccnc12)c1ncccc1OCCN1CCOCC1 [Compound 48],950 nM,1600 nM,,,,,
CN(C)CCCOc1cccnc1C(=O)Nc1cccc2cccnc12 [Compound 49],,,> 10000 nM,1700 nM,2500 nM,,
COc1cc(NC(=O)c2cc(N3CCN(C)CC3)ccn2)c2ncccc2c1 [Compound 54],,,> 10000 nM,15 nM,20 nM,,
"CN1CCC[C@H]1C(=O)Nc1cccc2cccnc12 [Compound 58, (S)-1-methyl-pyrrolidine-2-carboxylic acid quinolin-8-ylamide]",,,> 10000 nM,190 nM,170 nM,,
COc1cc(NS(=O)(=O)c2ccccn2)c2ncccc2c1 [Compound 72],170 nM,240 nM,> 10000 nM,,,,
O=S(=O)(Nc1cc(Cl)c(Cl)c2cccnc12)c1ccccn1 [Compound 73],1100 nM,1000 nM,> 10000 nM,,,,
Cc1ccc(NS(=O)(=O)c2ccccn2)c2ncccc12 [Compound 74],120 nM,110 nM,> 10000 nM,,,,
O=C(Nc1cccc2nccnc12)c1ccccn1 [Compound 77],,,> 10000 nM,170 nM,180 nM,,
O=C(Nc1ccccc1N1CCCC1)c1ccccn1 [Compound 79],8000 nM,6500 nM,> 10000 nM,,,,
CN(C)c1ccccc1NC(=O)c1ccccn1 [Compound 80],770 nM,830 nM,> 10000 nM,,,,
CCN(C)c1ccccc1NC(=O)c1ccccn1 [Compound 81],620 nM,500 nM,> 10000 nM,,,,
CCCN(C)c1ccccc1NC(=O)c1ccccn1 [Compound 82],2000 nM,1300 nM,> 10000 nM,,,,
CC(C)N(C)c1ccccc1NC(=O)c1ccccn1 [Compound 83],9600 nM,6500 nM,> 10000 nM,,,,
CCN(CC)c1ccccc1NC(=O)c1ccccn1 [Compound 84],1600 nM,1500 nM,> 10000 nM,,,,
CN(C)c1c(NC(=O)c2ccccn2)ccc(Cl)c1Cl [Compound 91],3500 nM,2400 nM,> 10000 nM,,,,
O=C(Nc1cc(OCCN2CCOCC2)cc2cccnc12)c1ccccn1 [Compound 99],,,,,,28 nM,31 nM
O=C(Nc1cccc2cccnc12)c1ncccc1OCCN1CCOCC1 [Compound 104],,,,,,810 nM,1400 nM
